Data taken from PubChem BioAssay AID1919013 (Molecular Pharmacology Branch, DTP, NCI, 2023).

Test system: LG0703-F498-PDC complex spheroid growth
Test: Anticancer human tumor LG0703-F498-PDC patient-derived lung adenocarcinoma cell line growth inhibition [AhR]
Details: for IC50: curve of first compound; for viability, T/C: stronger effect = lower value
From the text: Multicellular complex tumor spheroid response to aryl hydrocarbon receptor antagonists in combination with a variety of drugs and investigational agents in selected tumor cell lines
The current study was undertaken to assess response to aryl hydrocarbon receptor antagonists in combination with standard-of-care drugs and investigational agents in solid tumor complex spheroid models. Complex spheroids include a stromal component modeled by human endothelial cells (HUVEC) and fibroblasts modeled by human mesenchymal stem cells (MSCs). The concentration ranges selected for each drug and investigational agent were based upon clinically achievable concentrations if the clinical Cmax of the agent was known.
Compounds. The drugs and investigational agents: BAY 2416964 (NSC825713), GNF351 (NSC835774), CH-223191 (NSC835775), CPI-455 (NSC825282), aza-TdCyd (NSC777586), decitabine (NSC127716), belinostat (NSC758774), entinostat (NSC756642), pevonedistat (NSC761192), tazemetostat (NSC777109), talazoparib (NSC765396), olaparib (NSC753686), selinexor (NSC780203), nedisertib (M3814, NSC802822), bortezomib (NSC756655), venetoclax (NSC766270), doxorubicin (NSC123127), elimusertib (BAY189344, NSC800525), ceralasertib (AZD6738, NSC777638), TAK-243 (NSC785004), alisertib (NSC759677), etoposide (NSC141540), topotecan (NSC609699), eribulin (NSC707389), gemcitabine (NSC613327), carboplatin (NSC241240), cisplatin (NSC119875), and SN-38 (NSC673596) were obtained from the National Cancer Institute (NCI) Developmental Therapeutics Program Chemical Repository (32). The FDA-approved anticancer drug set is available from the Developmental Therapeutics Program at https://dtp.cancer.gov/organization/dscb/obtaining/available plates.htm. […] The stock solutions were prepared in dimethyl sulfoxide (DMSO, Sigma-Aldrich, St. Louis, MO, cat. D2650), except for the platinum compounds which were prepared in saline (Quality Biological, Gaithersburg, MD, cat. 114-055-101), at 800-fold the tested concentration and stored at -70 degrees C prior to their use. All drugs and investigational agents were tested over a range starting from a high concentration at or near the clinical Cmax and decreasing in half-log increments. If the clinical Cmax for an agent had not been determined, the highest concentration tested was 10 microM (Table 1).
Cell Culture. All cells were maintained in an incubator at 37 degrees C and 5% CO2 with 95% humidity. The PDC lines were cultured according to standard operating procedures established by the NCI PDMR (https://pdmr.cancer.gov). Briefly, all PDCs were thawed and cultured in Matrigel-coated flasks prepared with a working solution of 1X Ham's F-12 nutrient mix, without supplementation (Invitrogen, Waltham, MA, cat. 11765054), 100 U/mL penicillin-streptomycin (Invitrogen, cat. 15140122), and 2.5% Matrigel (Corning Inc., Corning, NY, cat. 354248) for the first three passages. All PDCs were cultured in complete DMEM/F-12 media containing advanced DMEM/F-12 (Invitrogen, cat. 12634028), 4.9% defined fetal bovine serum, heat inactivated (HyClone Laboratories Inc., Logan, UT, cat. SH30070.03HI), 389 ng/mL hydrocortisone (Sigma-Aldrich, cat. H4001), 9.7 ng/mL human EGF recombinant protein (Invitrogen, cat. PHG0313), 23.4 microg/mL adenine (Sigma-Aldrich, cat. A2786), 97.3 U/mL penicillin-streptomycin (Invitrogen, cat. 15140122), 1.9 mM L-glutamine (Invitrogen, cat. 25030081), and 9.7 microM Y-27632 dihydrochloride (Tocris Bioscience, Bristol, United Kingdom, cat. 1254). The PDCs were cultured in complete DMEM/F12 media without 10 microM Y-27632 dihydrochloride for at least two passages prior to the screen. The established cell lines NCI-H1341 and […] were cultured in DMEM/F-12, HEPES (Invitrogen, cat. 11330032), 5% defined fetal bovine serum (HyClone Laboratories Inc., cat. SH30070.03), ITS premix universal culture supplement [insulin (5 microg/mL), transferrin (5 microg/mL), and selenious acid (5 ng/mL)] […]

[1] = second compound 0.1 µM, first compound 0.0316 µM
[2] = second compound 0.1 µM, first compound 0.1 µM
[3] = second compound 0.1 µM, first compound 0.316 µM
[4] = second compound 0.1 µM, first compound 1 µM
[5] = second compound 0.1 µM, first compound 3.16 µM
[6] = second compound 0.1 µM, first compound 10 µM
[7] = second compound 0.316 µM, first compound 0.0316 µM
[8] = second compound 0.316 µM, first compound 0.1 µM
[9] = second compound 0.316 µM, first compound 0.316 µM
[10] = second compound 0.316 µM, first compound 1 µM
[11] = second compound 0.316 µM, first compound 3.16 µM
[12] = second compound 0.316 µM, first compound 10 µM
[13] = second compound 1 µM, first compound 0.0316 µM
[14] = second compound 1 µM, first compound 0.1 µM
[15] = second compound 1 µM, first compound 0.316 µM
[16] = second compound 1 µM, first compound 1 µM
[17] = second compound 1 µM, first compound 3.16 µM
[18] = second compound 1 µM, first compound 10 µM
[19] = second compound 3.16 µM, first compound 0.0316 µM
[20] = second compound 3.16 µM, first compound 0.1 µM
[21] = second compound 3.16 µM, first compound 0.316 µM
[22] = second compound 3.16 µM, first compound 1 µM
[23] = second compound 3.16 µM, first compound 3.16 µM
[24] = second compound 3.16 µM, first compound 10 µM
[25] = second compound 10 µM, first compound 0.0316 µM
[26] = second compound 10 µM, first compound 0.1 µM
[27] = second compound 10 µM, first compound 0.316 µM
[28] = second compound 10 µM, first compound 1 µM
[29] = second compound 10 µM, first compound 3.16 µM
[30] = second compound 10 µM, first compound 10 µM
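Also: luminescence taken as a proxy for viable cell amount.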
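For viability, T/C in this document: percent of DMSO vehicle control where 100% means growth equal to vehicle.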

IC50 (second compound 0.1 µM) [nM] | IC50 (second compound 0.316 µM) [nM] | IC50 (second compound 1 µM) [nM] | IC50 (second compound 3.16 µM) [nM] | IC50 (second compound 10 µM) [nM] | Compound | viability, T/C [1] [%] | viability, T/C [2] [%] | viability, T/C [3] [%] | viability, T/C [4] [%] | viability, T/C [7] [%] | viability, T/C [8] [%] | viability, T/C [9] [%] | viability, T/C [10] [%] | viability, T/C [13] [%] | viability, T/C [14] [%] | viability, T/C [15] [%] | viability, T/C [16] [%] | viability, T/C [19] [%] | viability, T/C [20] [%] | viability, T/C [21] [%] | other results
> 10000 | > 10000 | > 10000 | > 10000 | > 10000 | COc1cc(C2c3cc4c(cc3C(OC3OC5COC(C)OC5C(O)C3O)C3COC(=O)C23)OCO4)cc(OC)c1O (stereo not given) + CC(CO)NC(=O)c1cc(-c2ccc(Cl)cc2)nn(-c2cnn(C)c2)c1=O | 111 | 108 | 93.9 | 87.9 | 98.6 | 107 | 99.8 | 81.5 | 100 | 103 | 101 | 94.3 | 91.1 | 95.8 | 96.5 | viability, T/C [5]: 81.8%; viability, T/C [6]: 76.3%; viability, T/C [11]: 93.3%; viability, T/C [12]: 69.9%; viability, T/C [17]: 75.7%; viability, T/C [18]: 75.2%; viability, T/C [22]: 81.7%; viability, T/C [23]: 72.8%; viability, T/C [24]: 75.5%; viability, T/C [25]: 84.3%; viability, T/C [26]: 85.7%; viability, T/C [27]: 90.7%; viability, T/C [28]: 78%; viability, T/C [29]: 73%; viability, T/C [30]: 60.8%
770 | 523 | 547 | 459 | 360 | COc1cccc2c1C(=O)c1c(O)c3c(c(O)c1C2=O)CC(O)(C(=O)CO)CC3OC1CC(N)C(O)C(C)O1 (stereo not given) + CC(CO)NC(=O)c1cc(-c2ccc(Cl)cc2)nn(-c2cnn(C)c2)c1=O | 82.7 | 80.6 | 72.2 | 43 | 84.3 | 84.2 | 58.4 | 36 | 86.7 | 89.6 | 61.6 | 34.7 | 82.7 | 84.8 | 59.3 | viability, T/C [5]: 14.2%; viability, T/C [6]: 1.2%; viability, T/C [11]: 12.7%; viability, T/C [12]: 0.83%; viability, T/C [17]: 10%; viability, T/C [18]: 0.76%; viability, T/C [22]: 27.4%; viability, T/C [23]: 4.74%; viability, T/C [24]: 1.92%; viability, T/C [25]: 71.3%; viability, T/C [26]: 73.8%; viability, T/C [27]: 54.1%; viability, T/C [28]: 13.9%; viability, T/C [29]: 0.65%; viability, T/C [30]: 0.96%
> 1000 | > 1000 | > 1000 | > 1000 | > 1000 | Nc1ncn(C2CC(O)C(CO)O2)c(=O)n1 (stereo not given) + CC(CO)NC(=O)c1cc(-c2ccc(Cl)cc2)nn(-c2cnn(C)c2)c1=O | 84.8 | 91.1 | 85.9 | 78 | 82.2 | 87.5 | 79.2 | 76.5 | 78.5 | 79.5 | 71.7 | 77.4 | 88.4 | 67.9 | 80.5 | viability, T/C (second compound 0.1 µM, first compound 0.00316 µM): 85.3%; viability, T/C (second compound 0.1 µM, first compound 0.01 µM): 99.4%; viability, T/C (second compound 0.316 µM, first compound 0.00316 µM): 81.5%; viability, T/C (second compound 0.316 µM, first compound 0.01 µM): 91.9%; viability, T/C (second compound 1 µM, first compound 0.00316 µM): 83.5%; viability, T/C (second compound 1 µM, first compound 0.01 µM): 106%; viability, T/C (second compound 3.16 µM, first compound 0.00316 µM): 78.7%; viability, T/C (second compound 3.16 µM, first compound 0.01 µM): 80%; viability, T/C [22]: 71.8%; viability, T/C (second compound 10 µM, first compound 0.00316 µM): 87.4%; viability, T/C (second compound 10 µM, first compound 0.01 µM): 80.2%; viability, T/C [25]: 79.3%; viability, T/C [26]: 80.3%; viability, T/C [27]: 69.9%; viability, T/C [28]: 72.7%
